Key:
myeloperoxidase [1] = biological target: T1, myeloperoxidase (Homo sapiens, UniProt P05164); experiment: MPO Chlorination Assay (APF Assay); assay type: biochemical; conditions: potency range class, read-out: APF Assay IC50 value
T1 sequence (P05164 49-745): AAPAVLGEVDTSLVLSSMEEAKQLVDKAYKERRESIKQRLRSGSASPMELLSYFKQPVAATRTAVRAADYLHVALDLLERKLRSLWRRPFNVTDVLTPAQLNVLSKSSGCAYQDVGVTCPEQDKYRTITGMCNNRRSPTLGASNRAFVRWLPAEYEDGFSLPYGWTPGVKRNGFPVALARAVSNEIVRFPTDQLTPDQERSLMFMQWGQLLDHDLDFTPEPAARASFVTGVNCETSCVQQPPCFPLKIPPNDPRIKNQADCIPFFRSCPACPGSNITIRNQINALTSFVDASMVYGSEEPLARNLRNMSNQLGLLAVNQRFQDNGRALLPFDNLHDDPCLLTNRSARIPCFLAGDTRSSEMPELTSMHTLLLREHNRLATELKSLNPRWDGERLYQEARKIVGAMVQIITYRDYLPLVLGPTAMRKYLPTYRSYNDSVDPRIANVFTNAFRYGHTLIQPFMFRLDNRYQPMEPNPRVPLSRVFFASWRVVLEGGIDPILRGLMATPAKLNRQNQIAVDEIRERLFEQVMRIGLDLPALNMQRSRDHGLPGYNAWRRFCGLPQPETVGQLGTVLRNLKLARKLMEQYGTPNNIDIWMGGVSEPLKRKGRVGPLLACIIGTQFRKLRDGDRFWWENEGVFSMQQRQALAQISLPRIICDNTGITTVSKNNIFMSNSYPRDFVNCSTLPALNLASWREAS

myeloperoxidase [2] = biological target: T1, myeloperoxidase; experiment: MPO Peroxidation Assay (Amplex Red Assay); assay type: biochemical; conditions: potency range class, read-out: Amplex Red Assay IC50 value

IC50 (myeloperoxidase [1]) [nM]	IC50 (myeloperoxidase [2]) [nM]	Structure (SMILES)
1 to 100	101 to 999	Nc1cc([C@H](Cc2nc3cccc(-c4ccccc4)c3[nH]2)c2ccccc2)c2nn[nH]c2n1 [Example 238, (R)-7-(1-phenyl-2-(7-phenyl-1H-benzo[d]imidazol-2-yl)ethyl)-3H-[1,2,3]triazolo[4,5-b]pyridin-5-amine]
1 to 100	101 to 999	Nc1cc([C@H](Cc2nc3c(-c4ccccc4)cc(Cl)cc3[nH]2)c2ccccc2)c2nn[nH]c2n1 [Example 244, (R)-7-(2-(6-chloro-4-phenyl-1H-benzo[d]imidazol-2-yl)-1-phenylethyl)-3H-[1,2,3]triazolo[4,5-b]pyridin-5-amine]
1 to 100	101 to 999	Nc1cc([C@H](Cc2nc3c(-c4ccccc4)c(F)c(F)cc3[nH]2)c2ccccc2)c2nn[nH]c2n1 [Example 246, (R)-7-(2-(5,6-difluoro-4-phenyl-1H-benzo [d]imidazol-2-yl)-1-phenylethyl)-3H-[1,2,3]triazolo[4,5-b] pyridin-5-amine]
1 to 100	101 to 999	Nc1cc([C@H](Cc2nc3c(-c4cccc(Cl)c4)cccc3[nH]2)c2ccccc2)c2nn[nH]c2n1 [Example 247, (R)-7-(2-(4-(3-chlorophenyl)-1H-benzo[d]imidazol-2-yl)-1-phenylethyl)-3H-[1,2,3]triazolo [4,5-b]pyridin-5-amine]
1 to 100	101 to 999	Nc1cc([C@H](Cc2nc3c(-c4ccccc4)cc(C(F)(F)F)cc3[nH]2)c2ccccc2)c2nn[nH]c2n1 [Example 248, (R)-7-(1-phenyl-2-(4-phenyl-6-(trifluoromethyl)-1H-benzo [d]imidazol-2-yl)ethyl)-3H-[1,2,3] triazolo[4,5-b] pyridin-5-amine]
1 to 100	1000 to 10000	N#Cc1cc(-c2ccccc2)c2nc(C[C@H](c3ccccc3)c3cc(N)nc4[nH]nnc34)[nH]c2c1 [Example 254, (R)-2-(2-(5-amino-3H-[1,2,3]triazolo [4,5-b]pyridin-7-yl)-2-phenylethyl)-4-phenyl-1H-benzo[d]imidazole-6-carbonitrile]
101 to 999	101 to 999	Nc1cc([C@H](Cc2nc3ccc(-c4ccccc4)cc3[nH]2)c2ccccc2)c2nn[nH]c2n1 [Example 256, (R)-7-(1-phenyl-2-(6-phenyl-1H-benzo[d]imidazol-2-yl)ethyl)-3H-[1,2,3]triazolo [4,5-b]pyridin-5-amine]
101 to 999	101 to 999	Nc1cc([C@H](Cc2nc3cc(F)c(-c4ccccc4)cc3[nH]2)c2ccccc2)c2nn[nH]c2n1 [Example 259, (R)-7-(2-(5-fluoro-6-phenyl-1H-benzo[d]imidazol-2-yl)-1-phenylethyl)-3H-[1,2,3]triazolo[4,5-b] pyridin-5-amine]
101 to 999	1000 to 10000	Nc1cc([C@H](Cc2nc3c(-c4ccccc4Cl)cccc3[nH]2)c2ccccc2)c2nn[nH]c2n1 [Example 260, (R)-7-(2-(4-(2-chlorophenyl)-1H-benzo[d]imidazol-2-yl)-1-phenylethyl)-3H-[1,2,3]triazolo [4,5-b]pyridin-5-amine]

The remaining lines, values behind:

Structure (SMILES)	IC50 (myeloperoxidase [1]) [nM]	IC50 (myeloperoxidase [2]) [nM]
Nc1cc(C(CCC(=O)Cc2ccccc2)c2ccccc2)c2nn[nH]c2n1 (stereo not shown) [Example 233, 5-(5-amino-3H-[1,2,3]triazolo[4,5-b]pyridin-7-yl)-1,5-diphenylpentan-2-one]	101 to 999	1 to 100
Nc1cc(C(CCC(O)Cc2ccccc2)c2ccccc2)c2nn[nH]c2n1 (stereo not shown) [Example 234, 5-(5-amino-3H-[1,2,3]triazolo[4,5-b]pyridin-7-yl)-1,5-diphenylpentan-2-ol]	101 to 999	101 to 999
Nc1cc(C(CCC(N)Cc2ccccc2)c2ccccc2)c2nn[nH]c2n1 (stereo not shown) [Example 235, 7-(4-amino-1,5-diphenylpentyl)-3H-[1,2,3]triazolo[4,5-b]pyridin-5-amine]	101 to 999	101 to 999
Nc1cc(C(CCN[C@@H](CO)CCCc2ccccc2)c2ccccc2)c2nn[nH]c2n1 (stereo partly drawn) [Example 236, (R)-2-((3-(5-amino-3H-[1,2,3]triazolo[4,5-b]pyridin-7-yl)-3-phenylpropyl)amino)-5-phenylpentan-1-ol]	1 to 100	1000 to 10000
Nc1cc([C@H](CCO)c2ccccc2)c2nn[nH]c2n1 [Example 237, (R)-3-(5-amino-3H-[1,2,3]triazolo[4,5-b]pyridin-7-yl)-3-phenylpropan-1-ol]	101 to 999	101 to 999
Nc1cc([C@H](Cc2nc3ccccc3s2)c2ccccc2)c2nn[nH]c2n1 [Example 239, (R)-7-(2-(benzo[d]thiazol-2-yl)-1-phenylethyl)-3H-[1,2,3]triazolo[4,5-b]pyridin-5-amine]	101 to 999	1 to 100
Nc1cc([C@H](Cc2nc3ccccc3o2)c2ccccc2)c2nn[nH]c2n1 [Example 240, (R)-7-(2-(benzo[d]oxazol-2-yl)-1-phenylethyl)-3H-[1,2,3]triazolo[4,5-b]pyridin-5-amine]	101 to 999	101 to 999
Nc1cc([C@H](Cc2nc3ccc(-c4ccccc4)cc3c(=O)[nH]2)c2ccccc2)c2nn[nH]c2n1 [Example 241]	1 to 100	101 to 999
Nc1cc([C@H](Cc2nc3ccc(-c4ccccc4)cc3s2)c2ccccc2)c2nn[nH]c2n1 [Example 242, (R)-7-(1-phenyl-2-(6-phenylbenzo[d]thiazol-2-yl)ethyl)-3H-[1,2,3]triazolo [4,5-b]pyridin-5-amine]	1 to 100	1 to 100
CN(C)C(=O)c1cccc(-c2cccc3[nH]c(C[C@H](c4ccccc4)c4cc(N)nc5[nH]nnc45)nc23)c1 [Example 243, (R)-3-(2-(2-(5-amino-3H-[1,2,3]triazolo [4,5-b]pyridin-7-yl)-2-phenylethyl)-1H-benzo[d]imidazol-4-yl)-N,N-dimethylbenzamide]	1 to 100	101 to 999
NC(=O)c1cccc(-c2cccc3[nH]c(C[C@H](c4ccccc4)c4cc(N)nc5[nH]nnc45)nc23)c1 [Example 245, (R)-3-(2-(2-(5-amino-3H-[1,2,3]triazolo [4,5-b]pyridin-7-yl)-2-phenylethyl)-1H-benzo[d]imidazol-4-yl)benzamide]	1 to 100	101 to 999
NC(=O)c1ccc(-c2cccc3[nH]c(C[C@H](c4ccccc4)c4cc(N)nc5[nH]nnc45)nc23)cc1 [Example 249, (R)-4-(2-(2-(5-amino-3H-[1,2,3]triazolo [4,5-b]pyridin-7-yl)-2-phenylethyl)-1H-benzo[d]imidazol-4-yl)benzamide]	1 to 100	101 to 999
Nc1cc([C@H](Cc2nc3ccc(-c4ccc(Cl)cc4)cc3[nH]2)c2ccccc2)c2nn[nH]c2n1 [Example 250]	1 to 100	101 to 999
Nc1cc([C@H](Cc2nc3c(-c4cccc(C5CC5)c4)cccc3[nH]2)c2ccccc2)c2nn[nH]c2n1 [Example 251, (R)-7-(2-(4-(3-cyclopropylphenyl)-1H-benzo[d]imidazol-2-yl)-1-phenylethyl)-3H-[1,2,3]triazolo [4,5-b]pyridin-5-amine]	1 to 100	1000 to 10000
N#Cc1cccc(-c2cccc3[nH]c(C[C@H](c4ccccc4)c4cc(N)nc5[nH]nnc45)nc23)c1 [Example 252, (R)-3-(2-(2-(5-amino-3H-[1,2,3]triazolo [4,5-b]pyridin-7-yl)-2-phenylethyl)-1H-benzo[d]imidazol-4-yl)benzonitrile]	1 to 100	1000 to 10000
Nc1cc([C@H](Cc2nc3c(-c4ccc(Cl)cc4)cccc3[nH]2)c2ccccc2)c2nn[nH]c2n1 [Example 253, (R)-7-(2-(4-(4-chlorophenyl)-1H-benzo[d]imidazol-2-yl)-1-phenylethyl)-3H-[1,2,3]triazolo [4,5-b] pyridin-5-amine]	1 to 100	1000 to 10000
N#Cc1ccc(-c2ccc3nc(C[C@H](c4ccccc4)c4cc(N)nc5[nH]nnc45)[nH]c3c2)cc1 [Example 255, (R)-4-(2-(2-(5-amino-3H-[1,2,3]triazolo[4,5-b]pyridin-7-yl)-2-phenylethyl)-1H-benzo[d]imidazol-6-yl)benzonitrile]	1 to 100	1000 to 10000
Cn1c(C[C@H](c2ccccc2)c2cc(N)nc3[nH]nnc23)nc2ccc(-c3ccccc3)cc21 [Example 257, (R)-7-(2-(1-methyl-6-phenyl-1H-benzo[d]imidazol-2-yl)-1-phenylethyl)-3H-[1,2,3]triazolo[4,5-b] pyridin-5-amine]	101 to 999	1000 to 10000
Cn1c(C[C@H](c2ccccc2)c2cc(N)nc3[nH]nnc23)nc2cc(-c3ccccc3)ccc21 [Example 258, (R)-7-(2-(1-methyl-5-phenyl-1H-benzo[d]imidazol-2-yl)-1-phenylethyl)-3H-[1,2,3]triazolo[4,5-b] pyridin-5-amine]	101 to 999	1000 to 10000
Nc1cc([C@H](Cc2nc3ccccc3[nH]2)c2ccccc2)c2nn[nH]c2n1 [Example 261, (R)-7-(2-(1H-benzo [d]imidazol-2-yl)-1-phenylethyl)-3H-[1,2,3]triazolo[4,5-b] pyridin-5-amine]	1000 to 10000	101 to 999

Source: patent US11008317B2, “Triazolopyridine inhibitors of myeloperoxidase and/or EPX” (priority 2016, dated 2021)
